Where a name gives a salt, the structure may show the parent alone.
Biological target: T1, Sodium Channel ENaC (Homo sapiens, UniProt P37088+P51168+P51170)
T1 construct: Human primary bronchial epithelial cells differentiated at air-liquid interface (ALI); host or cells: Human primary bronchial epithelial cells differentiated at air-liquid interface
T1 sequence (P37088 1-669): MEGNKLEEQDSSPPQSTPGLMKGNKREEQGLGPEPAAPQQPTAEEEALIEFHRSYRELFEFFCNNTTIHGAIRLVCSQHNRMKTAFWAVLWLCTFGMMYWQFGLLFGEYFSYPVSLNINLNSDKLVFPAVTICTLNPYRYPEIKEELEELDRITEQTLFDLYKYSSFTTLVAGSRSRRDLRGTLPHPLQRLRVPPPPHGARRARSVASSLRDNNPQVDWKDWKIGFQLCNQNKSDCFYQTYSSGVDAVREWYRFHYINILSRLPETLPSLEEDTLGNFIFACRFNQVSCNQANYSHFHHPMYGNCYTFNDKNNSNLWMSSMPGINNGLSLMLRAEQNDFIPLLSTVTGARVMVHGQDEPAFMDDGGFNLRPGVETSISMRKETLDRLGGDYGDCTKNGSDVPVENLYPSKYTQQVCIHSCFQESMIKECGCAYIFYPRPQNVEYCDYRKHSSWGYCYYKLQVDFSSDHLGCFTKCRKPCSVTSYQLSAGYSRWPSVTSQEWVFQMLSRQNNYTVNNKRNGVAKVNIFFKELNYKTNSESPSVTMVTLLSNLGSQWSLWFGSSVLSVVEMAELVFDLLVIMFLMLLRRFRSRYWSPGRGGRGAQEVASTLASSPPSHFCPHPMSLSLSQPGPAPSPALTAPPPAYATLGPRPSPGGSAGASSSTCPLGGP
T1 sequence (P51168 1-640): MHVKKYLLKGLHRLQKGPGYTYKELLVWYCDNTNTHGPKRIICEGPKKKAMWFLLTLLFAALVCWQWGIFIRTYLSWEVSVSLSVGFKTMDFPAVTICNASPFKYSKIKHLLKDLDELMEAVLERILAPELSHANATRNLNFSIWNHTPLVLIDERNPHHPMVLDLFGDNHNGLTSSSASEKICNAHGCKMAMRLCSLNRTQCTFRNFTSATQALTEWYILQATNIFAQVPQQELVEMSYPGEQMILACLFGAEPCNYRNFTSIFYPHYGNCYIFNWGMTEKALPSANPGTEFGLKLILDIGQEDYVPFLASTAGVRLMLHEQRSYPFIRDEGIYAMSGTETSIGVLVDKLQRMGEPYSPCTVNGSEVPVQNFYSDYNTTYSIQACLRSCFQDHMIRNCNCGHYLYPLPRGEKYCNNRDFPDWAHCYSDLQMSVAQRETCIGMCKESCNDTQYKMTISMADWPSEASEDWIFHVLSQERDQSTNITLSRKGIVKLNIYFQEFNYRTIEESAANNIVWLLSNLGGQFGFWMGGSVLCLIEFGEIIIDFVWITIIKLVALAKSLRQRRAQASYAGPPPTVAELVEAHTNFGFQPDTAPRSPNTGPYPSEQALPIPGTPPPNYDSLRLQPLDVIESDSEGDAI
T1 sequence (P51170 1-649): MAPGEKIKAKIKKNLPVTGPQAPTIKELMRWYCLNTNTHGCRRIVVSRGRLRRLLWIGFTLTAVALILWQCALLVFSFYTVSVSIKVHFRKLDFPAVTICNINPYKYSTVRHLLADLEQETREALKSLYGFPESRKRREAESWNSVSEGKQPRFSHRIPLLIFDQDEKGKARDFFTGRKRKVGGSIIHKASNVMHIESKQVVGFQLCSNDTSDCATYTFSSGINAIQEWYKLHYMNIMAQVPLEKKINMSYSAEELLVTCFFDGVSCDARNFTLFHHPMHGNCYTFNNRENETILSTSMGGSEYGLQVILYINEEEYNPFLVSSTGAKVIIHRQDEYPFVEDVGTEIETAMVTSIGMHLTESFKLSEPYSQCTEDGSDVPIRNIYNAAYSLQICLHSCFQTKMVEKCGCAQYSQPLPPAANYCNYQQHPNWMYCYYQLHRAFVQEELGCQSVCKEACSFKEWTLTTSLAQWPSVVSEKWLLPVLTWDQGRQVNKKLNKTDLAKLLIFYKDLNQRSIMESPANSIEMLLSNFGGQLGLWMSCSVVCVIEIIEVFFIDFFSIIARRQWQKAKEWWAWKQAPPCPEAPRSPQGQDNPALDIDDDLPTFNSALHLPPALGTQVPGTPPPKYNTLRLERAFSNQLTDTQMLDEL
Assay: Sodium Channel ENaC Ussing Chamber Test (short circuit current)
Type: cell-based
Conditions: human primary bronchial epithelial cells at air-liquid interface; inhibition of short circuit current; compounds added to the apical side
Procedure: Sodium Channel ENaC Ussing Chamber Test
Human primary bronchial epithelial cells differentiated at air-liquid interface (ALI) on snapwell permeable supports (MatTek Corporation, MA, USA, cat no AIR-100-SNP) were maintained at ALI culture in a humidified incubator at 37° C. and 5% CO2. Basolateral medium (MatTek Corporation, MA, USA cat no AIR-100-MM-ASY) was changed every second day. Mucus or liquid formed on the apical side was gently aspirated every second day to maintain viability and performance of the cells.
The transepithelial voltage between the luminal/apical and basolateral membrane were measured in the ussing chamber consisted of vertical, in-house manufactured ussing chambers, DVC-1000 V/C clamps with preamplifiers (World Precision Instruments), electrode kits (EK1, World Precision Instruments), Power Lab with Chart5 software, water bath with external circulation and carbogen gas distribution and regulation system. Electrodes used in the set up were casted manually using 4% agarose in 0.9% sterile NaCl according to the manufacturer's recommendation.
The ussing chambers were assembled with an empty snapwell membrane (Costar 3407) and electrodes contained in Kreb's buffer (SIGMA-ALDRICH cat no K3753) for one hour at 37° C. in presence of 95% oxygen and 5% carbon dioxide. After this equilibration step the system was compensated for fluid resistance and input offset.
The equilibrated chambers were reassembled with a snapwell containing ALI cells and after 20 minutes stabilisation cumulative doses of the compounds were added to the apical side of the membrane. After the final dose 10 μM Benzamil was added to reach maximum.
All test compounds, including the reference compound, were diluted from 10 mM stocks in 100% DMSO and added to opaque 96-well plates (Greiner, Cat No. 651201). Dilution series of 12 doses were prepared in DMSO, starting with 3 μM followed by 10 times dilution steps.
Chart5 for Windows software was used to measure the value of the short circuit current after each compound addition. The data was transferred into Excel and analysed using IDBS XLfit® 5.2 (ID Business Solutions Ltd). The molar concentration of test or reference compound producing 50% inhibition (curve IC50) was derived by fitting data to a 4-parameter logistic function of the form: y=(A+((B−A)/(1+(((10^C)/x)^D))))
A The bottom plateau of the curve, i.e. the final minimum y value
B The top of the plateau of the curve i.e. the final maximum y value
C The log10 x value at a y value of 50%.

| Compound | IC50 [nM] |
| --- | --- |
| Cc1ccccc1C[C@H](CNCC1CCN(C(=O)CCNC[C@H](O)[C@@H](O)[C@H](O)[C@H](O)CO)CC1)CNC(=O)c1nc(Cl)c(N)nc1N [Example 7, 3,5-diamino-6-chloro-N—((R)-2-(2-methylbenzyl)-3-((1-(3-((2S,3R,4R,5R)-2,3,4,5,6-pentahydroxyhexylamino)propanoyl)piperidin-4-yl)methylamino)propyl)pyrazine-2-carboxamide] | 1.26 |
| CCCCCCN(CCNC(=O)c1ccc(CNC[C@H](CNC(=O)c2nc(Cl)c(N)nc2N)Cc2ccccc2C)cc1)C[C@H](O)[C@@H](O)[C@H](O)CO [Example 2, 3,5-diamino-6-chloro-N—((R)-3-((4-((2-(hexyl((2S,3R,4R)-2,3,4,5-tetrahydroxypentyl)amino)ethyl)carbamoyl)benzyl)amino)-2-(2-methylbenzyl)propyl)pyrazine-2-carboxamide] | 2.51 |
| CCCCCCN(CCC(=O)N1CCC(CNC[C@H](CNC(=O)c2nc(Cl)c(N)nc2N)Cc2ccccc2C)CC1)C[C@H](O)[C@@H](O)[C@H](O)[C@H](O)CO [Example 4, 3,5-diamino-6-chloro-N—((R)-3-((1-(3-(hexyl((2S,3R,4R,5R)-2,3,4,5,6-pentahydroxyhexyl)amino)propanoyl)piperidin-4-yl)methylamino)-2-(2-methylbenzyl)propyl)pyrazine-2-carboxamide] | 0.631 |
| CCCCCCN(CCNC(=O)c1ccc(CNC[C@H](CNC(=O)c2nc(Cl)c(N)nc2N)Cc2ccccc2C)cc1)C[C@@H](O)[C@@H](O)[C@H](O)[C@H](O)CO [Example 9, 3,5-diamino-6-chloro-N—((R)-3-((4-((2-(hexyl((2R,3R,4R,5R)-2,3,4,5,6-pentahydroxyhexyl)amino)ethyl)carbamoyl)benzyl)amino)-2-(2-methylbenzyl)propyl)pyrazine-2-carboxamide Dihydrochloride] | 2.51 |
| CCCCCCN(CCNC(=O)c1ccc(CNC[C@H](CNC(=O)c2nc(Cl)c(N)nc2N)Cc2ccccc2C)cc1)C[C@H](O)[C@@H](O)[C@H](O)[C@H](O)CO [Example 10, 3,5-diamino-6-chloro-N—((R)-3-((4-((2-(hexyl((2S,3R,4R,5R)-2,3,4,5,6-pentahydroxyhexyl)amino)ethyl)carbamoyl)benzyl)amino)-2-(2-methylbenzyl)propyl)pyrazine-2-carboxamide] | 2.51 |
| CCCCCCN(CCCC(=O)N1CCC(CNC[C@H](CNC(=O)c2nc(Cl)c(N)nc2N)Cc2ccccc2C)CC1)C[C@H](O)[C@@H](O)[C@H](O)[C@H](O)CO [Example 6, 3,5-diamino-6-chloro-N—((R)-3-((1-(4-(hexyl((2S,3R,4R,5R)-2,3,4,5,6-pentahydroxyhexyl)amino)butanoyl)piperidin-4-yl)methylamino)-2-(2-methylbenzyl)propyl)pyrazine-2-carboxamide] | 0.316 |
| Cc1ccccc1C[C@H](CNCC1CCN(C(=O)CCNC[C@H](O)[C@@H](O)[C@H](O)CO)CC1)CNC(=O)c1nc(Cl)c(N)nc1N [Example 1, 3,5-diamino-6-chloro-N—((R)-2-(2-methylbenzyl)-3-(((1-(3-(((2S,3R,4R)-2,3,4,5-tetrahydroxypentyl)amino)propanoyl)piperidin-4-yl)methyl)amino)propyl)pyrazine-2-carboxamide] | 0.316 |
| CCCCCCN(CCNC(=O)c1ccc(CCNC[C@H](CNC(=O)c2nc(Cl)c(N)nc2N)Cc2ccccc2C)cc1)C[C@H](O)[C@@H](O)[C@H](O)CO [Example 13, 3,5-diamino-6-chloro-N—((R)-3-((4-((2-(hexyl((2S,3R,4R)-2,3,4,5-tetrahydroxypentyl)amino)ethyl)carbamoyl)phenethyl)amino)-2-(2-methylbenzyl)propyl)pyrazine-2-carboxamide Dihydrochloride] | 0.0794 |
| CCCCCCN(CCNC(=O)N1CCC(CNC[C@H](CNC(=O)c2nc(Cl)c(N)nc2N)Cc2ccccc2C)CC1)C[C@H](O)[C@@H](O)[C@H](O)[C@H](O)CO [Example 3, 3,5-diamino-6-chloro-N—((R)-3-((1-(2-(hexyl((2S,3R,4R,5R)-2,3,4,5,6-pentahydroxyhexyl)amino)ethylcarbamoyl)piperidin-4-yl)methylamino)-2-(2-methylbenzyl)propyl)pyrazine-2-carboxamide] | 0.0794 |
| CCCCCCN(CCC(=O)N1CCC(CNC[C@H](CNC(=O)c2nc(Cl)c(N)nc2N)Cc2ccccc2C)CC1)C[C@H](O)[C@@H](O)[C@H](O)CO [Example 5, 3,5-diamino-6-chloro-N—((R)-3-((1-(3-(hexyl((2S,3R,4R)-2,3,4,5-tetrahydroxypentyl)amino)propanoyl)piperidin-4-yl)methylamino)-2-(2-methylbenzyl)propyl)pyrazine-2-carboxamide] | 1 |
| CCCCCCN(CCNC(=O)Oc1ccc(CNC[C@H](CNC(=O)c2nc(Cl)c(N)nc2N)Cc2ccccc2C)cc1)C[C@H](O)[C@@H](O)[C@H](O)[C@H](O)CO [Example 11, 4-(((R)-3-(3,5-diamino-6-chloropyrazine-2-carboxamido)-2-(2-methylbenzyl)propylamino)methyl)phenyl 2-(hexyl((2S,3R,4R,5R)-2,3,4,5,6-pentahydroxyhexyl)amino)ethylcarbamate] | 1.58 |
| CCCCCCN(CCNC(=O)c1ccc(CNC[C@@H](CNC(=O)c2nc(Cl)c(N)nc2N)Cc2ccccc2C)cc1)C[C@H](O)[C@@H](O)[C@H](O)CO [Example 14, 3,5-diamino-6-chloro-N—((S)-3-((4-((2-(hexyl((2S,3R,4R)-2,3,4,5-tetrahydroxypentyl)amino)ethyl)carbamoyl)benzyl)amino)-2-(2-methylbenzyl)propyl)pyrazine-2-carboxamide Acetic Acid] | 31.6 |
